Data: ChEMBL document CHEMBL1201862, “PubChem BioAssay data set” (2004)
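In this assay, cells in 96-well plates receive the compound at five concentrations for 48 hours. Endpoints are linearly interpolated between the surrounding concentrations. The concentration for 50% growth inhibition is given as GI50.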 The source made the active and inactive calls. No stated cut-off is given here; in the data, active = GI50 up to about 1.1 µM and inactive = higher.

Legend:
Assay in all cases: DTP human tumour cell line panel, 48 h
[1] = test system: 786-0
[2] = test system: A498
[3] = test system: A549
[4] = test system: ACHN
[5] = test system: CAKI-1
[6] = test system: CCRF-CEM
[7] = test system: COLO 205
[8] = test system: DU-145
[9] = test system: EKVX
[10] = test system: HCC 2998
[11] = test system: HCT-116
[12] = test system: HCT-15
[13] = test system: HL-60
[14] = test system: HOP-62
[15] = test system: HOP-92
[16] = test system: HT-29
[17] = test system: Hs-578T
[18] = test system: IGROV-1
[19] = test system: KM12
[20] = test system: LOX IMVI
[21] = test system: M14
[22] = test system: MCF7
[23] = test system: MDA-MB-231
[24] = test system: MDA-MB-435
[25] = test system: Malme-3M
[26] = test system: NCI-H226
[27] = test system: NCI-H23
[28] = test system: NCI-H522
[29] = test system: NCI/ADR-RES
[30] = test system: OVCAR-5
[31] = test system: OVCAR-8
[32] = test system: PC-3
[33] = test system: RPMI-8226
[34] = test system: RXF 393
[35] = test system: SF-268
[36] = test system: SF-295
[37] = test system: SF-539
[38] = test system: SK-MEL-28
[39] = test system: SK-MEL-2
[40] = test system: SK-MEL-5
[41] = test system: SK-OV-3
[42] = test system: SN12C
[43] = test system: SNB-19
[44] = test system: SNB-75
[45] = test system: SR
[46] = test system: SW-620
[47] = test system: T47D
[48] = test system: TK-10
[49] = test system: U-251
[50] = test system: UACC-257
[51] = test system: UACC-62
[52] = test system: UO-31

Compound: N#Cc1c(N)oc(-c2cccc([N+](=O)[O-])c2)c1C#N
- GI50 [1]: 27.7 µM (inactive)
- GI50 [2]: 21 µM (inactive)
- GI50 [3]: > 100 µM (inactive)
- GI50 [4]: 19.1 µM (inactive)
- GI50 [5]: 20.7 µM (inactive)
- GI50 [6]: 27 µM (inactive)
- GI50 [7]: 20.9 µM (inactive)
- GI50 [8]: > 100 µM (inactive)
- GI50 [9]: 12.9 µM (inactive)
- GI50 [10]: 19.5 µM (inactive)
- GI50 [11]: 33.7 µM (inactive)
- GI50 [12]: 16.1 µM
- GI50 [13]: 28.5 µM (inactive)
- GI50 [14]: > 10 µM (inactive)
- GI50 [15]: 17.4 µM (inactive)
- GI50 [16]: 20 µM (inactive)
- GI50 [17]: 32.8 µM (inactive)
- GI50 [18]: 23.6 µM (inactive)
- GI50 [19]: > 10 µM (inactive)
- GI50 [20]: 31.6 µM (inactive)
- GI50 [21]: 46.9 µM (inactive)
- GI50 [22]: 53.3 µM (inactive)
- GI50 [23]: 37.1 µM (inactive)
- GI50 [24]: 31.2 µM (inactive)
- GI50 [25]: 24.4 µM (inactive)
- GI50 [26]: 43.2 µM (inactive)
- GI50 [27]: 21.4 µM (inactive)
- GI50 [28]: 23.7 µM (inactive)
- GI50 [29]: 30.5 µM (inactive)
- GI50 [30]: 82.4 µM (inactive)
- GI50 [31]: 21.1 µM (inactive)
- GI50 [32]: 62.8 µM (inactive)
- GI50 [33]: 22 µM (inactive)
- GI50 [34]: 24.8 µM (inactive)
- GI50 [35]: 31.4 µM (inactive)
- GI50 [36]: > 100 µM (inactive)
- GI50 [37]: 23.2 µM (inactive)
- GI50 [38]: 19.5 µM (inactive)
- GI50 [39]: 44.5 µM (inactive)
- GI50 [40]: 19.6 µM (inactive)
- GI50 [41]: > 100 µM (inactive)
- GI50 [42]: 38.6 µM (inactive)
- GI50 [43]: 31.6 µM (inactive)
- GI50 [44]: 21.9 µM (inactive)
- GI50 [45]: 46.6 µM (inactive)
- GI50 [46]: 24.1 µM (inactive)
- GI50 [47]: 50 µM (inactive)
- GI50 [48]: 22.1 µM (inactive)
- GI50 [49]: 27.5 µM (inactive)
- GI50 [50]: 21.8 µM (inactive)
- GI50 [51]: 30 µM (inactive)
- GI50 [52]: 16.7 µM (inactive)
